Reference: article PMC10296061, “Inhibition of the Mitochondrial Carnitine/Acylcarnitine Carrier by Itaconate through Irreversible Binding to Cysteine 136: Possible Pathophysiological Implications” (Biomolecules, 2023)
Positions count from the first letter of the chain named.

Assays:
[1] = target: T1, CAC C23V/C58V/C89S/C136V/C155V/C283S (C-less) mutant (Rattus norvegicus, UniProt P97521, C136V/C155V/C23V/C283S/C58V/C89S); assay: Transport assay in proteoliposomes, C-less CAC mutant; assay type: biochemical
T1 construct: made in house; host or cells: E. coli C0214
T1 sequence (P97521 1-301 C23V/C58V/C89S/C136V/C155V/C283S): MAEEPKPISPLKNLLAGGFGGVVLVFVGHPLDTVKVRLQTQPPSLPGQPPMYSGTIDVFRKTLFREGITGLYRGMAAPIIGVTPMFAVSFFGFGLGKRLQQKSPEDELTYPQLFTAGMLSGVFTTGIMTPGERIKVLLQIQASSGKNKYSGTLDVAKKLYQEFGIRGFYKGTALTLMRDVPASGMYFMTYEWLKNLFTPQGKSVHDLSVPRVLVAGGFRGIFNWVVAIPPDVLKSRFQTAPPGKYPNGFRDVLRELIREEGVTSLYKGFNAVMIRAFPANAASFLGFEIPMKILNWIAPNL
Procedure: (§1) As previously described, the pMW7-WTratCAC recombinant plasmid was used for over-expressing the rat CAC [22]. The overlap extension method was used to introduce the mutations; in the main time, NdeI and HindIII restriction sites were also added using appropriate primers. The PCR products were purified by the QIAEX II Gel Extraction Kit (QIAGEN) and digested with NdeI and HindIII and then ligated into the pMW7. All mutations were verified by DNA sequencing. The resulting plasmid constructs were transformed into E. coli C0214. Overexpression, inclusion body fraction preparation, and purification of the CAC proteins were performed as previously described.
(§2) As previously described, recombinant CAC (WT and mutants) and ORC1 proteins were used for proteoliposome formation. For experiments with native CAC, ORC1, or ANT proteins, rat liver mitochondria, or HeLa cell mitochondria, the latter for the CAC alone, were first purified using the standard procedure of cell disruption and differential centrifugation. Then proteins were extracted using 3% Triton X-100 and reconstituted as described for the recombinant proteins. The concentration of intraliposomal carnitine and ornithine was 15 mM and 30 mM, respectively, in all samples.
(§3) To test the transport activity of the CAC, 550 μL of proteoliposomes was passed through a Sephadex G-75 column to remove the external substrate. Six hundred μL of the turbid eluate was collected, divided into samples of 100 μL each, and used for transport measurement by the inhibitor-stop method. Transport was started by adding 0.1 mM [^3H]carnitine ([^3H]ornitine or [^3H]ATP) to proteoliposome samples and stopped with 1.5 mM NEM (N-ethylmaleimide) at the indicated time interval. In the control samples, NEM was added with the labeled substrate at time zero. Transport rates were measured in 10 min, i.e., within the initial linear range of the time course, at 25 °C. After terminating the transport reaction, the external substrate was removed by chromatography on the Sephadex G-75 column, and the intraliposomal radioactivity was measured. The experimental values were corrected by subtracting the controls.
Figure 3 Identification of residue responsible for itaconate inhibition. (a) Dose–response analysis of the Cys mutants of CAC for the inhibition by itaconate was performed. Transport activity of the WT (○), C136A (●), C155A (Δ), C23V/C58V/C89S/C155V/C283S (▲), and C23V/C58V/C89S/C136V/C155V/C283S (□) was measured by adding 0.1 mM [^3H]carnitine after treatment by itaconate at the indicated concentrations. Transport activity (µmol/10 min/mg) is: WT 1.80 ± 0.31; C136A 0.91 ± 0.10; C155A 1.00 ± 0.17; C23V/C58V/C89S/C155V/C283S 1.02 ± 0.159; C23V/C58V/C89S/C136V/C155V/C283S 0.71 ± 0.22. (b) Dose–response analysis of proteoliposomes reconstituted native (○) or recombinant ORC (●) incubated with itaconate at the indicated concentrations. Transport activity was measured by adding 0.1 [^3H]ornithine, respectively, as described in Materials and Methods. The data are expressed as a percent of the controls (no addition of itaconate) and are means ± SD from three independent experiments.
Figure 4 Lysine contribution to CAC inhibition by itaconate. Protection of PLP (pyridoxal phosphate) from inhibition by itaconate on C-less CAC was carried out. C-less mutant (i.e., C23V/C58V/C89S/C136V/C155V/C283S) was reconstituted into proteoliposomes and treated or not treated with 30 mM PLP for 10 min (“Contr” or “PLP” column, respectively). […]

recombinant CAC (WT) = target: T2, recombinant CAC (WT) (Rattus norvegicus, UniProt P97521); assay: [3H]carnitine/carnitine antiport in proteoliposomes reconstituted with recombinant WT CAC; assay type: biochemical; conditions: recombinant WT CAC, pH 6.5, 10 min incubation; read-out: IC50 for inhibition of transport at pH 6.5
T2 construct: made in house; host or cells: E. coli C0214
T2 sequence (P97521 1-301): T1 sequence (P97521 1-301 C23V/C58V/C89S/C136V/C155V/C283S) with V23C, V58C, S89C, V136C, V155C, S283C
Procedure: as §1, §2, §3
Figure 1 Effect of itaconate on the native and recombinant mitochondrial carnitine/acylcarnitine (CAC). Dose–response analysis for itaconate inhibition was carried out using proteoliposomes reconstituted with native (○) or recombinant (●) CAC carriers. After 10 min of itaconate incubation, transport activity was started by adding 0.1 mM [^3H]carnitine and stopped after 10 min as described in Section 2. Percent of residual activity with respect to the control, without itaconate treatment, was reported. The values are the means ± SD from three independent experiments.
Figure 2 Effect of different pH on the inhibition of CAC protein by itaconate. (a) Proteoliposomes reconstituted with the recombinant CAC were incubated at various pHs (range pH 6.5–8.5) for 10 min with 10 mM itaconate. (b) Dose–response analysis of inhibition by itaconate of the recombinant CAC at pH 6.5. was performed. Proteoliposomes were incubated for 10 min at pH 6.5 with itaconate at the indicated concentrations. In both (a,b), the transport activity was measured for 10 min by adding to proteoliposomes 0.1 mM [^3H]carnitine.

CAC from HeLa cells = target: T3, CAC from HeLa cells (Homo sapiens, UniProt O43772); assay: HeLa cells treated with DMI, CAC extracted from mitochondria and reconstituted for transport assay; assay type: cell-based; conditions: 10 mM DMI, 45 min
T3 construct: CAC from mitochondria protein extract of HeLa cells treated with 10 mM DMI or vehicle (control) was reconstituted in proteoliposomes; endogenous in cells; host or cells: HeLa cells
T3 sequence (O43772 1-301): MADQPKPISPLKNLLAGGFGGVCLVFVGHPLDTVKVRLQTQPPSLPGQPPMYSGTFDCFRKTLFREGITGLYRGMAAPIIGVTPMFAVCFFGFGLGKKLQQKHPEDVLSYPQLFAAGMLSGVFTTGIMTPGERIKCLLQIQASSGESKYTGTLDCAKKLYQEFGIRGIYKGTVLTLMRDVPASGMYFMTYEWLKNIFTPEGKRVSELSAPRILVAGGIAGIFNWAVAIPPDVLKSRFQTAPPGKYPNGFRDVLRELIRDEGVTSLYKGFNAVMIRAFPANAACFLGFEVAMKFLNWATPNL
Excerpt: as §2
To test the transport activity of the CAC, 550 μL of proteoliposomes was passed through a Sephadex G-75 column to remove the external substrate. […] Transport rates were measured in 10 min, i.e., within the initial linear range of the time course, at 25 °C. After terminating the transport reaction, the external substrate was removed by chromatography on the Sephadex G-75 column, and the intraliposomal radioactivity was measured. […]
Figure 10 Effect of dimethyl itaconate (DMI) on CAC. […] Thus, the transport activity was measured for 10 min by adding to proteoliposomes 0.1 mM [^3H]carnitine. […] Transport activity in the presence or absence of DTE was measured as described in Materials and Methods. […]

## Cc1ncc(COP(=O)(O)O)c(C=O)c1O [PLP, pyridoxal 5′-phosphate, reference compound]
[1]; 30 mM PLP for 10 min
  inhibition at 30000 µM: ~75%
[1]; 30 mM PLP, then G-75
  reversibility of inhibition after removal of PLP by size exclusion chromatography (G-75): fully reversed

## C=C(CC(=O)OC)C(=O)OC [dimethyl itaconate]
Recombinant CAC (WT)
  IC50: 20 ± 4.9 mM
CAC from HeLa cells
  CAC transport activity after treatment of cells: strongly inhibited
CAC from HeLa cells; DTE in transport assay
  reversal of inhibition by DTE: could not be reversed
